# Patent publication US11471462B2, “Compositions and methods for detecting and treating diabetes” (THE BROAD INSTITUTE, INC., priority 2016, dated 2022)
# Residues, ends and D or L forms follow the SMILES beside them. *: point of attachment. Cbz = O=C(OCc1ccccc1)*
# Assays:
# Type in all cases: cell-based, human
# SLC16A11 protein [1] = assay: Proteasomal degradation: SLC16A11 protein levels by Western blot; details: HuH7 cells stably expressing SLC16A11^REF-V5; 5 μM for 3 hrs
# Description: FIG. 5D (top panel) provides two Western blots showing that SLC16A11 is degraded by the proteasome and has a short half-life relative to other SLC16 family members. […] HEK293T cells expressing V5-tagged SLC16A11^REF, SLC16A13, or SLC16A1 were treated with cycloheximide (10 μg/mL) for the indicated times. Note that the SLC16A11, SLC16A13, and SLC16A1 images are from different exposure times. […] HuH7 cells stably expressing SLC16A11^REF-V5 were treated with MG132 (5 μM) or cyclohexamide for 3 hrs. FIG. 5D (bottom panel) provides Western blot showing SLC16A11 and BSG co-immunoprecipitations. (5D-A-5D-C): Co-immunoprecipitation of SLC16A11 and BSG confirms the reduced interaction between SLC16A11^T2D and BSG in HEK293T cells. BSG is glycosylated and runs as multiple bands by reducing SDS-PAGE. Molecular weight markers (kDa) are indicated. (5D-A): Interaction of BSG-V5 with immunoprecipitated SLC16A11-HA. (5D B): Interaction of SLC16A11-HA with immunoprecipitated BSG-V5. (C) Interaction of endogenous BSG with immunoprecipitated SLC16A11-HA. […]
# Total protein concentration was measured using a BCA assay (Thermo Fisher Scientific) and equal quantities of protein were loaded on each gel. […] Signals were detected with HRP-conjugated secondary antibodies, followed by chemiluminescent detection and autoradiography. […]
# SLC16A11 protein [2] = assay: SLC16A11 protein levels in HuH7 cells cultured with metabolites (Western blot); details: HuH7 cells stably expressing SLC16A11, cultured with metabolite 24 hr
# From the text: FIG. 19 provides Western blots and experimental protocol steps involved in the analysis of SLC16A11 protein levels after culture of HuH7 cells stably expressing SLC16A11 in the presence or absence of various metabolites, namely, pyruvate, lactate and glucose. Cell lysates were used in the analysis. […] Tubulin is shown as a reference. As shown, glucose, pyruvate and […] are metabolites that affect SLC16A11 protein levels.
# FIG. 20 provides Western blots of V5-tagged SLC16A11 (WT) and the V5-tagged SLC16A11 variant, T2D risk, stably expressed in HuH7 cells that had been glucose-starved for the times indicated. Cell lysates were used in the analysis. […] A similar finding is observed in the left blot of FIG. 19, above, in which no SLC16A11 protein was detected in cell lysates cultured for 24 hrs without glucose compared with detectable levels of SLC16A11 protein found in lysates from cultures containing 1-5 g/L of glucose.
# FIG. 21 provides Western blots of V5-tagged SLC16A11 (WT) and the V5-tagged SLC16A11 variant, T2D risk, stably expressed in HuH7 cells that been cultured for 24 hours with or without glucose and with either low (L) or high (H) concentrations of pyruvate and lactate as indicated. Cell lysates were used in the analysis. […]
# SLC16A11 = assay: Metabolic effectors on SLC16A11 transcript levels in SNU761 cells; details: 24 hours, low and high concentrations
# Description: (§1) FIG. 22 provides bar graphs showing the effects of low and high concentrations of metabolic effectors (oleic acid (OA), insulin and glucagon) on expression levels of SLC16A11 and SLC16A13 transcripts in SNU761 cells cultured for 24 hours in the presence of low/high concentrations of OA (0.3 mM/1.5 mM); insulin (100 nM/500 nM); or glucagon (100 nM/500 nM). Relative transcipt levels of SLC16A11 and SLC16A13 are shown, with 2-FBS (2% Fetal Bovine Serum) used as control.
# (§2) FIG. 23 provides bar graphs showing the effects of low and high concentrations of pyruvate or lactate on expression levels of SLC16A11 and SLC16A13 transcripts in SNU761 cells cultured for 24 hours in the presence of 2 mM pyruvate (low), 10 mM pyruvate (high), 20 mM lactate (low), or 100 mM lactate (high). Relative transcipt levels of SLC16A11 and SLC16A13 are shown, compared with transcript levels in cell cultured in increasing concentrations of glucose.
# (§3) To assess whether metabolic effectors regulated SLC16A11 and SLC16A13 transcript levels, endogenous transcripts in SNU761 cells (derived from a human hepatocellular carcinoma) were examined following exposure of the cells to different metabolic perturbations. SNU761 cells were cultured in the presence of various metabolic effectors for 24 hours after which time cell lysates were collected and the relative endogenous expression levels of SLC16A11 and SLC16A13 transcripts were assessed. The metabolic effectors included in the cell cultures included oleic acid (OA) at a low concentration (0.3 mM) or a high concentration (1.5 mM); insulin at a low concentration (100 nM) or a high concentration (500 nM) and glucagon at a low concentration (100 nM) and a high concentration (500 nM). Cells cultured in 2-FBS were used as a control. […] (FIG. 22). Similarly, SNU761 cells were cultured in the presence or absence of low or high concentrations of pyruvate or lactate in the culture medium for 24 hours after which time cell lysates were analyzed. In the cultures, low (L) pyruvate concentration was 2 mM; high (H) pyruvate concentration was 10 mM, and low lactate concentration was 20 mM, while high lactate concentration was 100 mM. […] (FIG. 23).
# SLC16A13 = assay: Metabolic effectors on SLC16A13 transcript levels in SNU761 cells; details: 24 hours, high concentration (10 mM pyruvate, 100 mM lactate)
# Description: as §1, §2, §3
SMILES,SLC16A11 protein levels (SLC16A11 protein [1]),SLC16A11 protein levels (SLC16A11 protein [2]),SLC16A11 transcript levels (SLC16A11),relative transcript levels of SLC16A13 (SLC16A13)
CC(C)C[C@@H](C=O)NC(=O)[C@H](CC(C)C)NC(=O)[C@H](CC(C)C)NC(=O)OCc1ccccc1 [MG132] (Cbz-Leu-Leu-Leu-aldehyde),increased,,,
CC(O)C(=O)O (stereo not shown) [lactate],,alter SLC16A11 protein levels,alter transcripts at 17p13,increased
